In assay [1] the target is recombinant human HPK1 (Homo sapiens (Human), UniProt Q92918). The assay is described as follows: HPK1 kinase assay (ADP-Glo). Type of assay: biochemical. The conditions noted are these: 25 μM ATP, MBP substrate. Summed up: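 Activity was read as ADP formed, detected by ADP-Glo luminescence after the reaction of 5 ng recombinant human HPK1 with MBP and ATP (stocks 0.5 μg/μl and 25 μM) for 40 min at 30 °C. Buffer was Tris pH 7.5 with MgCl2, BSA and DTT, with compound in 0.5% DMSO. IC50 came from inhibition curves.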
A general note: In ADP-Glo the light output rises with the ADP produced.

In assay [2] the test system is human peripheral blood pan T cells. In words: IFNγ and IL-2 analysis of human peripheral pan T cells. Type of assay: cell-based. To be noted: T-cell, CD3/CD28 bead stimulation, 100 nM Prostaglandin E2, 24 hr. The procedure:
IFNγ and IL-2 Analysis of Human Peripheral Pan T Cells
Human peripheral blood pan T cells were purchased from STEMCELL™ Technologies Inc. Human peripheral blood pan T cells were thawed and suspended in DMEM media (10% FBS and 10 Penicillin/Streptomycin). 8×10^4 T cells were seeded in 96-well plate and incubated with various concentration of compounds and 100 nM Prostaglandin E2 for 1 hr. T cells were stimulated with Dynabeads Human T-Activator CD3/CD28 (Life Technologies) at a 1:3 cells: beads ratio. […] Data were analyzed with an MESO Quickplex SQ120 (Mesoscale Discovery).
In Table 3, the values represent + for >1000 nM, ++ 200-1,000 nM, +++ for <200 nM and − for not determined.

[3] abbreviates: IFNγ secretion, read-out: IFNγ (EC50).
The mark [4] stands for this setting: IL-2 secretion, read-out: IL-2 (EC50).

Where two headings read alike, the source gives them in different places.

Data on 22 compounds can be found in patent US11649255B2, “Indazoles as hematopoietic progenitor kinase 1 (HPK1) inhibitors and methods using same” (1st Biotherapeutics, Inc., priority 2020, dated 2023).

Chain of recombinant human HPK1 (Q92918 whole entry): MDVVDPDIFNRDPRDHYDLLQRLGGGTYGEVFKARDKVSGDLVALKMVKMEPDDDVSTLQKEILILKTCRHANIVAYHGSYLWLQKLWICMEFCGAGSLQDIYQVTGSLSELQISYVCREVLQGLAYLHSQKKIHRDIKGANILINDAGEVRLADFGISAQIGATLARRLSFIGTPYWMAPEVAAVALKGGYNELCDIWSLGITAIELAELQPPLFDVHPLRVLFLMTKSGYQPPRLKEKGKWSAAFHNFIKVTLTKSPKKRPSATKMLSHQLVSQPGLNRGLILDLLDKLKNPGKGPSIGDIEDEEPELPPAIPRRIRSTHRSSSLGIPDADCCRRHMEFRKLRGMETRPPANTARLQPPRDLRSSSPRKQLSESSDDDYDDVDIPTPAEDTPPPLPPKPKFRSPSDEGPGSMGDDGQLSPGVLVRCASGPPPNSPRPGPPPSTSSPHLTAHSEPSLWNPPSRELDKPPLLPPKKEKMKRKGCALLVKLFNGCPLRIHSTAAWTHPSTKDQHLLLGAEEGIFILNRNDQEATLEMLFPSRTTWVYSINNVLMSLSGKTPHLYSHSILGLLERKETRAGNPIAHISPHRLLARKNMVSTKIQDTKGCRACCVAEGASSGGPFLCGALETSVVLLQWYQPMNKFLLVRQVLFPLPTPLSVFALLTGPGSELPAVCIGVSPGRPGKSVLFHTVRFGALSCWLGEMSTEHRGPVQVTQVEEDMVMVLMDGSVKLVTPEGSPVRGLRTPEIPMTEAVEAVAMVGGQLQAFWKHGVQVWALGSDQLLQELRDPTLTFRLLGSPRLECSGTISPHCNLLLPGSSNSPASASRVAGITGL

With `CCc1c(F)c(SC)c2[nH]ncc2c1-c1ccc2nc(NC(=O)[C@@H]3C[C@@H]3F)cn2c1` [Example 293, (1S,2S)-N-(6-(5-ethyl-6-fluoro-7-(methylthio)-1H-indazol-4-yl)imidazo[1,2-a]pyridin-2-yl)-2-fluorocyclopropane-1-carboxamide], in assay [1], the IC50 was under 100 nM. The EC50 in assay [2] (setting [3]) was under 200 nM.

Regarding `CN(c1c(F)c(Cl)c(-c2ccc3nc(NC(=O)[C@@H]4C[C@@H]4F)cn3c2)c2cn[nH]c12)C1CC1` [Example 361, (1S,2S)-N-(6-(5-chloro-7-(cyclopropyl(methyl)amino)-6-fluoro-1H-indazol-4-yl)imidazo[1,2-a]pyridin-2-yl)-2-fluorocyclopropane-1-carboxamide], in assay [1], the IC50 is under 100 nM. The 50% effective concentration (EC50) in assay [2] (setting [3]) was 200 to 1000 nM; in assay [2] (setting [4]) it was over 1000 nM.

In the case of `CSc1c(F)c(N(C)C)c2[nH]ncc2c1-c1ccn2nc(NC(=O)[C@@H]3C[C@@H]3F)cc2c1` [Example 558, (1S,2S)-N-(5-(7-(dimethylamino)-6-fluoro-5-(methylthio)-1H-indazol-4-yl)pyrazolo[1,5-a]pyridin-2-yl)-2-fluorocyclopropane-1-carboxamide], in assay [1], the 50% inhibitory concentration (IC50) is under 100 nM. The half-maximal effective concentration (EC50) was under 200 nM in assay [2] (setting [3]) and 200 to 1000 nM in assay [2] (setting [4]).

As for `CSc1c(F)cc2[nH]ncc2c1-c1ccc2nc(NC(=O)[C@@H]3C[C@@H]3F)sc2c1` [Example 105, (1S,2S)-2-fluoro-N-(6-(6-fluoro-5-(methylthio)-1H-indazol-4-yl)benzo[d]thiazol-2-yl)cyclopropane-1-carboxamide], in assay [1], the IC50 is under 100 nM. Besides, the EC50 in assay [2] (setting [3]) is 200 to 1000 nM; in assay [2] (setting [4]), over 1000 nM.

Consider `CSc1c(F)c(N(C)C)c2[nH]ncc2c1-c1ccc2nc(NC(=O)[C@@H]3C[C@@H]3F)sc2c1` [Example 110, (1S,2S)-N-(6-(7-(dimethylamino)-6-fluoro-5-(methylthio)-1H-indazol-4-yl)benzo[d]thiazol-2-yl)-2-fluorocyclopropane-1-carboxamide], for which the IC50 in assay [1] is under 100 nM. In addition, in assay [2] (setting [3]), the EC50 is under 200 nM.

Regarding `CCN(C)c1c(F)c(SC)c(-c2ccn3nc(NC(=O)[C@@H]4C[C@@H]4F)cc3c2)c2cn[nH]c12` [Example 577, (1S,2S)-N-(5-(7-(ethyl(methyl)amino)-6-fluoro-5-(methylthio)-1H-indazol-4-yl)pyrazolo[1,5-a]pyridin-2-yl)-2-fluorocyclopropane-1-carboxamide], the half-maximal inhibitory concentration (IC50) in assay [1] was under 100 nM. In addition, the EC50 in assay [2] (setting [3]) was under 200 nM; in assay [2] (setting [4]) it was 200 to 1000 nM.

For `CN(C)c1c(F)c(Cl)c(-c2ccn3nc(NC(=O)[C@@H]4C[C@@H]4F)cc3c2)c2cn[nH]c12` [Example 484, (1S,2S)-N-(5-(5-chloro-7-(dimethylamino)-6-fluoro-1H-indazol-4-yl)pyrazolo[1,5-a]pyridin-2-yl)-2-fluorocyclopropane-1-carboxamide], the IC50 in assay [1] is under 100 nM. The EC50 was under 200 nM in assay [2] (setting [3]) and 200 to 1000 nM in assay [2] (setting [4]).

As for `CSc1c(F)c(N(C)C)c2[nH]ncc2c1-c1ccc2nc(NC(=O)[C@@H]3C[C@@H]3F)sc2n1` [Example 194, (1S,2S)-N-(5-(7-(dimethylamino)-6-fluoro-5-(methylthio)-1H-indazol-4-yl)thiazolo[5,4-b]pyridin-2-yl)-2-fluorocyclopropane-1-carboxamide], the IC50 in assay [1] was under 100 nM. The 50% effective concentration (EC50) in assay [2] (setting [3]) fell in the range of 200 to 1000 nM.

On to `CSc1c(F)cc2[nH]ncc2c1-c1ccc2nc(NC(=O)[C@@H]3C[C@@H]3F)sc2n1` [Example 156, (1S,2S)-2-fluoro-N-(5-(6-fluoro-5-(methylthio)-1H-indazol-4-yl)thiazolo[5,4-b]pyridin-2-yl)cyclopropane-1-carboxamide], for which the concentration for half-maximal inhibition (IC50) in assay [1] is under 100 nM. For the same compound, the EC50 in assay [2] (setting [3]) and in assay [2] (setting [4]) was 200 to 1000 nM throughout.

Regarding `Cc1c(F)c(SCCO)c2[nH]ncc2c1-c1ccn2nc(NC(=O)[C@@H]3C[C@@H]3F)cc2c1` [Example 523, (1S,2S)-2-fluoro-N-(5-(6-fluoro-7-((2-hydroxyethyl)thio)-5-methyl-1H-indazol-4-yl)pyrazolo[1,5-a]pyridin-2-yl)cyclopropane-1-carboxamide], the IC50 in assay [1] is under 100 nM. In addition, the half-maximal effective concentration (EC50) in assay [2] (setting [3]) is under 200 nM.

As to `CSc1c(F)c(SC)c2[nH]ncc2c1-c1ccc2nc(NC(=O)[C@@H]3C[C@@H]3F)sc2n1` [Example 170, (1S,2S)-2-fluoro-N-(5-(6-fluoro-5,7-bis(methylthio)-1H-indazol-4-yl)thiazolo[5,4-b]pyridin-2-yl)cyclopropane-1-carboxamide], the concentration for half-maximal inhibition (IC50) in assay [1] was under 100 nM. For the same compound, the 50% effective concentration (EC50) is 200 to 1000 nM in assay [2] (setting [3]) and over 1000 nM in assay [2] (setting [4]).

As to `CN(C)C(=O)c1c(F)c(Cl)c(-c2ccc3nc(NC(=O)[C@@H]4C[C@@H]4F)sc3c2)c2cn[nH]c12` [Example 125, 5-chloro-6-fluoro-4-(2-((1S,2S)-2-fluorocyclopropane-1-carboxamido)benzo[d]thiazol-6-yl)-N,N-dimethyl-1H-indazole-7-carboxamide], the IC50 in assay [1] is under 100 nM. Moreover, the half-maximal effective concentration (EC50) in assay [2] (setting [3]) is under 200 nM.

With `CN(C)C(=O)c1c(F)c(Cl)c(-c2ccn3nc(NC(=O)[C@@H]4C[C@@H]4F)cc3c2)c2cn[nH]c12` [Example 556, 5-chloro-6-fluoro-4-(2-((1S,2S)-2-fluorocyclopropane-1-carboxamido)pyrazolo[1,5-a]pyridin-5-yl)-N,N-dimethyl-1H-indazole-7-carboxamide], in assay [1], the IC50 is under 100 nM. For the same compound, the concentration giving a half-maximal response (EC50) in assay [2] (setting [3]) is under 200 nM; in assay [2] (setting [4]) it was 200 to 1000 nM.

`CCc1c(F)c(N(C)CC)c2[nH]ncc2c1-c1ccc2nc(NC(=O)[C@@H]3C[C@@H]3F)cn2c1` [Example 326, (1S,2S)-N-(6-(5-ethyl-7-(ethyl(methyl)amino)-6-fluoro-1H-indazol-4-yl)imidazo[1,2-a]pyridin-2-yl)-2-fluorocyclopropane-1-carboxamide]: the half-maximal inhibitory concentration (IC50) in assay [1] is under 100 nM. Besides, the 50% effective concentration (EC50) in assay [2] (setting [3]) and in assay [2] (setting [4]) was 200 to 1000 nM in each case.

As for `CSc1c(F)cc2[nH]ncc2c1-c1ccc2nc(NC(=O)[C@@H]3C[C@@H]3F)cn2c1` [Example 296, (1S,2S)-2-fluoro-N-(6-(6-fluoro-5-(methylthio)-1H-indazol-4-yl)imidazo[1,2-a]pyridin-2-yl)cyclopropane-1-carboxamide], the half-inhibitory concentration (IC50) in assay [1] is under 100 nM. Moreover, the EC50 in assay [2] (setting [3]) was under 200 nM; in assay [2] (setting [4]), 200 to 1000 nM.

Consider `CSc1c(F)c(Cl)c(-c2ccc3nc(NC(=O)[C@@H]4C[C@@H]4F)sc3n2)c2cn[nH]c12` [Example 174, (1S,2S)-N-(5-(5-chloro-6-fluoro-7-(methylthio)-1H-indazol-4-yl)thiazolo[5,4-b]pyridin-2-yl)-2-fluorocyclopropane-1-carboxamide], for which, in assay [1], the IC50 is under 100 nM. In assay [2] (setting [3]), the EC50 fell in the range of 200 to 1000 nM.

Take `CCOc1c(F)c(C)c(-c2ccn3nc(NC(=O)[C@@H]4C[C@@H]4F)cc3c2)c2cn[nH]c12` [Example 509, (1S,2S)-N-(5-(7-ethoxy-6-fluoro-5-methyl-1H-indazol-4-yl)pyrazolo[1,5-a]pyridin-2-yl)-2-fluorocyclopropane-1-carboxamide]: the IC50 in assay [1] is under 100 nM. The EC50 is under 200 nM in assay [2] (setting [3]) and 200 to 1000 nM in assay [2] (setting [4]).

As to `CSc1c(F)c(SC)c2[nH]ncc2c1-c1ccc2nc(NC(=O)[C@@H]3C[C@@H]3F)cn2c1` [Example 297, (1S,2S)-2-fluoro-N-(6-(6-fluoro-5,7-bis(methylthio)-1H-indazol-4-yl)imidazo[1,2-a]pyridin-2-yl)cyclopropane-1-carboxamide], the IC50 in assay [1] is under 100 nM. The EC50 in assay [2] (setting [3]) and in assay [2] (setting [4]) was under 200 nM in each case.

With `CC(C)Nc1c(F)c(Cl)c(-c2ccc3nc(NC(=O)[C@@H]4C[C@@H]4F)cn3c2)c2cn[nH]c12` [Example 359, (1S,2S)-N-(6-(5-chloro-6-fluoro-7-(isopropylamino)-1H-indazol-4-yl)imidazo[1,2-a]pyridin-2-yl)-2-fluorocyclopropane-1-carboxamide], in assay [1], the IC50 is under 100 nM. The half-maximal effective concentration (EC50) in assay [2] (setting [3]) and in assay [2] (setting [4]) was 200 to 1000 nM throughout.

As to `CSc1c(F)c(C)c(-c2ccn3nc(NC(=O)[C@H]4C[C@H]4F)cc3c2)c2cn[nH]c12` [Example 574, (1R,2R)-2-fluoro-N-(5-(6-fluoro-5-methyl-7-(methylthio)-1H-indazol-4-yl)pyrazolo[1,5-a]pyridin-2-yl)cyclopropane-1-carboxamide], the EC50 in assay [2] (setting [3]) and in assay [2] (setting [4]) was 200 to 1000 nM throughout.

As for `CSc1c(F)c(SC)c2[nH]ncc2c1-c1ccc2nc(NC(=O)[C@@H]3C[C@@H]3F)sc2c1` [Example 111, (1S,2S)-2-fluoro-N-(6-(6-fluoro-5,7-bis(methylthio)-1H-indazol-4-yl)benzo[d]thiazol-2-yl)cyclopropane-1-carboxamide], the concentration giving a half-maximal response (EC50) in assay [2] (setting [3]) is 200 to 1000 nM.

With `CSc1c(F)c(C)c(-c2ccc3nc(NC(=O)[C@@H]4C[C@@H]4F)sc3n2)c2cn[nH]c12` [Example 173, (1S,2S)-2-fluoro-N-(5-(6-fluoro-5-methyl-7-(methylthio)-1H-indazol-4-yl)thiazolo[5,4-b]pyridin-2-yl)cyclopropane-1-carboxamide], the 50% effective concentration (EC50) in assay [2] (setting [3]) was in the range of 200 to 1000 nM.

As usually defined, the IC50 is the concentration that inhibits the measured activity by half. A word on the EC50: it is the concentration that produces a half-maximal response.
